US11884708B2, “Stapled peptide inhibitors of nemo as potential anti-inflammatory and anti-cancer drugs” (INSTITUT PASTEUR, priority 2015, dated 2024)
Like-named read-outs stand apart in the source and are kept apart here. Where a SMILES comes first, the peptide text is derived from it. Bridges are numbered along the chain shown (N, C = ends). [ ]: non-standard residue; d: D form. The star is where a group is joined. BODIPYFLEthylmaleimide = Cc1cc(C)n2c1C=C1C=CC(CCC(=O)NCCN3C(=O)CC(*)C3=O)=[N+]1[B-]2(F)F; R8 = C=CCCCCCC[C@@](C)(N)C(=O)O; S5 = C=CCCC[C@](C)(N)C(=O)O

What was measured:
[1] = Temperature-induced denaturation followed by CD; format: physicochemical; conditions: 30 μM or 300 μM, ΔCp ≈ 0; for Tm: thermal denaturation by CD; for ΔH: van't Hoff enthalpy change at Tm
Procedure: Temperature-induced denaturation experiments were performed by measuring the ellipticity at 222 nm from 1° C. to 95° C. in 1° C. steps, at a rate of 1° C./min, with a 2 nm bandwidth. Thermodynamic parameters including the melting temperature (Tm) and the van't Hoff enthalpy change at the melting temperature (ΔHm) were determined by fitting the denaturation curves with the Gibbs-Helmholtz equation as described elsewhere, [10]. The heat capacity change (ΔCp) was assumed to be 0 as judged by ΔHm which yielded similar values within 10% at two independent peptide concentrations (30 and 300 μM). The ellipticity was converted to differential extinction coefficient Δε (M^−1·cm^−1) per residue taking into account the peptide concentration determined by amino acid analysis.
Thermal stability of the peptides was also investigated by performing thermal denaturation profiles followed by CD (FIGS. 1 C and D and Table III). […] Indeed, the helicity of UBI-Aib (49%) is only 1.16-fold increased at 1° C. compared to UBI (42%), while its melting temperature (Tm=−8° C.) is 2.25 times higher than that of UBI (Tm=−18° C.).

CC2-LZ domain of NEMO = CC2-LZ domain of NEMO (Mus musculus, UniProt O88522); test: Fluorescence anisotropy/polarization binding assay; conditions: for Kd: fixed peptide concentration 0.1 μM; for Binding affinity (FP) at 10 μM: fixed peptide concentration 10 μM
Procedure: Measurements were performed on a Tecan infinite F500 equipped with polarizing filters and using excitation and emission wavelengths at 485 nm and 535 nm, respectively. Anisotropy data were calculated using the Magellan software version 6.5. Prior experiments, the mouse CC2-LZ was extensively dialyzed in binding buffer containing 20 mM HEPES pH 7.4, 100 mM NaCl, and 0.05% P20 detergent (v/v). All experiments were performed in a 384 well plate (vol 25 μl) at room temperature. The BODIPY®-labeled peptide concentrations were fixed at 0.1 or 10 μM whereas the CC2-LZ concentration varied from 0 to 100 μM. Reference calibrated at 22 mP, was based on the fluorescence of the peptide alone. Each experimental binding curve was determined from at least 10 independent concentration points. The G-factor was calculated as previously described in Agou et al. [7], with a value of 0.75, which was observed constant within 5% upon all titrations. For analysis, the blank value corresponding to the value of buffer alone, was subtracted from all titration data.
All NEMO peptides were conjugated to an extra N-terminal cysteine with the fluorophore BODIPY® or FITC to determine their binding affinity for the CC2-LZ domain of NEMO (also called NOA or UBAN) by fluorescence polarization. For each peptide titration, various concentration of the target ranging from 0 to 100 μM and a fixed concentration of peptide at 0.1 or 10 μM were used at 25° C. […] For these reasons, all further titration experiments were performed with a fixed peptide concentration of 0.1 μM unless otherwise indicated.

[2] = CD spectroscopy, α-helical content; format: physicochemical; conditions: 50 μM peptide, phosphate buffer pH 7.0, UBI in TFE taken as 100%
[3] = read-out: Binding affinity (FP) at 0.1 μM

CC2-LZ domain of NEMO, sequence (O88522 242-343 limits assumed): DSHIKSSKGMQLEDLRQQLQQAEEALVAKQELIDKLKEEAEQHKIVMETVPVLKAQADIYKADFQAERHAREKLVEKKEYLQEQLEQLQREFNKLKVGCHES

Compound	ΔS [1]	Tm [1]	ΔH [1]	Kd (CC2-LZ domain of NEMO; [3])	α-helical content at 1° C. [2]	Binding affinity (FP) at 10 μM (CC2-LZ domain of NEMO)	Kd (CC2-LZ domain of NEMO; peptides with antennapedia, read-out: KD)	Kd (CC2-LZ domain of NEMO; peptides with antennapedia)
CC(=O)N[C@@H](CSC1CC(=O)N(CCNC(=O)CCC2=[N+]3C(=Cc4c(C)cc(C)n4[B-]3(F)F)C=C2)C1=O)C(=O)N[C@@H](CCC(=O)O)C(=O)N[C@@H](CC(C)C)C(=O)N[C@@H](C)C(=O)N[C@@H](CCC(N)=O)C(=O)N[C@@H](CC(C)C)C(=O)N[C@@H](CCC(N)=O)C(=O)N[C@@H](C)C(=O)N[C@@H](CCC(=O)O)C(=O)N[C@@H](CC(C)C)C(=O)N[C@@H](CC(=O)O)C(=O)N[C@]1(C)CCCCCCC=CCCC[C@@](C)(C(=O)N[C@@H](CC(=O)O)C(=O)N[C@@H](CCCCN)C(=O)N[C@@H](CCC(N)=O)C(=O)N[C@@H](CCC(=O)O)C(=O)N[C@@H](CC(C)C)C(=O)N[C@@H](CCCNC(=N)N)C(=O)N[C@@H](CCCCN)C(=O)N[C@@H](CC(C)C)C(N)=O)NC(=O)[C@H](CCC(N)=O)NC(=O)[C@H](C(C)C)NC(=O)[C@H](C(C)C)NC(=O)[C@H](C)NC(=O)[C@H](CCC(N)=O)NC(=O)[C@H](C(C)C)NC1=O (single isomer, unassigned) [Co-SAHN I307-A314 (A), ELAQLQAELDXVQAVVQXDKQELRKL, reference compound]	A: −24 - cal. mol^−1.K^−1	A: 21 - B: C°	A: −6970 - (cal. mol)^−1	> 1850 µM	A: 45% -			
CC[C@H](C)[C@H](NC(=O)[C@H](CCCCN)NC(=O)[C@@H](NC(=O)[C@H](CCC(N)=O)NC(=O)[C@H](CCCNC(=N)N)NC(=O)[C@H](CSC1CC(=O)N(CCNC(=O)CCC2=[N+]3C(=Cc4c(C)cc(C)n4[B-]3(F)F)C=C2)C1=O)NC(C)=O)[C@@H](C)CC)C(=O)N[C@@H](Cc1c[nH]c2ccccc12)C(=O)N[C@@H](Cc1ccccc1)C(=O)N[C@@H](CCC(N)=O)C(=O)N[C@@H](CC(N)=O)C(=O)N[C@@H](CCCNC(=N)N)C(=O)N[C@@H](CCCNC(=N)N)C(=O)N[C@@H](CCSC)C(=O)N[C@@H](CCCCN)C(=O)N[C@@H](Cc1c[nH]c2ccccc12)C(=O)N[C@@H](CCCCN)C(=O)N[C@@H](CCCCN)C(=O)N[C@@H](CC(C)C)C(=O)N[C@@H](CCCCN)C(=O)N[C@@H](C)C(=O)N[C@@H](CCC(N)=O)C(=O)N[C@@H](C)C(=O)N[C@]1(C)CCCCCCC=CCCC[C@@](C)(C(=O)N[C@@H](C)C(=O)N[C@@H](CCC(=O)OC)C(=O)N[C@@H](CCCNC(=N)N)C(=O)N[C@@H](Cc2c[nH]cn2)C(=O)N[C@@H](C)C(=O)N[C@@H](CCCNC(=N)N)C(=O)N[C@@H](CCC(=O)OC)C(=O)N[C@@H](CCCCN)C(N)=O)NC(=O)[C@H](Cc2ccccc2)NC(=O)[C@H](CCCNC(=N)N)NC(=O)[C@H](C)NC(=O)[C@H](CCCCN)NC(=O)[C@H](Cc2ccc(O)cc2)NC(=O)[C@H]([C@@H](C)CC)NC1=O (stereo partly drawn) [A-UBI-SAHN D306-Q313 OMe, RQIKIWFQNRRMKWKKLKAQAX2IYKARFX5AX7RHARX9K] (Ac-C(BODIPYFLEthylmaleimide)RQIKIWFQNRRMKWKKLKAQA[R8]IYKARF[S5]AE(OMe)RHARE(OMe)K-NH2; staple 23-30)								0.06 ± 0.01 µM
CC[C@H](C)[C@H](NC(=O)[C@H](CC(=O)O)NC(=O)[C@H](C)NC(=O)[C@H](CCC(N)=O)NC(=O)[C@H](C)NC(=O)[C@H](CCCCN)NC(=O)[C@H](CC(C)C)NC(=O)[C@H](CCCCN)NC(=O)[C@H](CCCCN)NC(=O)[C@H](Cc1c[nH]c2ccccc12)NC(=O)[C@H](CCCCN)NC(=O)[C@H](CCSC)NC(=O)[C@H](CCCNC(=N)N)NC(=O)[C@H](CCCNC(=N)N)NC(=O)[C@H](CC(N)=O)NC(=O)[C@H](CCC(N)=O)NC(=O)[C@H](Cc1ccccc1)NC(=O)[C@H](Cc1c[nH]c2ccccc12)NC(=O)[C@@H](NC(=O)[C@H](CCCCN)NC(=O)[C@@H](NC(=O)[C@H](CCC(N)=O)NC(=O)[C@H](CCCNC(=N)N)NC(=O)[C@H](CSC1CC(=O)N(CCNC(=O)CCC2=[N+]3C(=Cc4c(C)cc(C)n4[B-]3(F)F)C=C2)C1=O)NC(C)=O)[C@@H](C)CC)[C@@H](C)CC)C(=O)N[C@@H](Cc1ccc(O)cc1)C(=O)N[C@@H](CCCCN)C(=O)N[C@@]1(C)CCCC=CCCC[C@@](C)(C(=O)N[C@@H](CCC(=O)O)C(=O)N[C@@H](CCCNC(=N)N)C(=O)N[C@@H](Cc2c[nH]cn2)C(=O)N[C@@H](C)C(=O)N[C@@H](CCCNC(=N)N)C(=O)N[C@@H](CCC(=O)O)C(=O)N[C@@H](CCCCN)C(N)=O)NC(=O)[C@H](CCC(N)=O)NC(=O)[C@H](Cc2ccccc2)NC(=O)[C@H](CCCNC(=N)N)NC1=O (stereo partly drawn) [A-UBI-SAHN A310-A314, RQIKIWFQNRRMKWKKLKAQADIYKX4RFQX6ERHAREK] (Ac-C(BODIPYFLEthylmaleimide)RQIKIWFQNRRMKWKKLKAQADIYK[S5]RFQ[S5]ERHAREK-NH2; staple 27-31)					57%		0.2 µM	

Continued, in another order:

ΔS [1]	Tm [1]	ΔH [1]	Kd (CC2-LZ domain of NEMO; [3])	α-helical content at 1° C. [2]	Binding affinity (FP) at 10 μM (CC2-LZ domain of NEMO)	Kd (CC2-LZ domain of NEMO; peptides with antennapedia, read-out: KD)	Compound	Kd (CC2-LZ domain of NEMO; peptides with antennapedia)
A: −16 - cal. mol^−1.K^−1	35 ± 0.3 C°	A: −4800 - (cal. mol)^−1	34 ± 6 µM	A: 75% -	Very weak		CC[C@H](C)[C@@H]1NC(=O)[C@](C)(NC(=O)[C@H](C)NC(=O)[C@H](CCC(N)=O)NC(=O)[C@H](C)NC(=O)[C@H](CCCCN)NC(=O)[C@H](CC(C)C)NC(=O)[C@H](CSC2CC(=O)N(CCNC(=O)CCC3=[N+]4C(=Cc5c(C)cc(C)n5[B-]4(F)F)C=C3)C2=O)NC(C)=O)CCCCCCC=CCCC[C@@](C)(C(=O)N[C@@H](C)C(=O)N[C@@H](CCC(=O)O)C(=O)N[C@@H](CCCNC(=N)N)C(=O)N[C@@H](Cc2c[nH]cn2)C(=O)N[C@@H](C)C(=O)N[C@@H](CCCNC(=N)N)C(=O)N[C@@H](CCC(=O)O)C(=O)N[C@@H](CCCCN)C(N)=O)NC(=O)[C@H](Cc2ccccc2)NC(=O)[C@H](CCCNC(=N)N)NC(=O)[C@H](C)NC(=O)[C@H](CCCCN)NC(=O)[C@H](Cc2ccc(O)cc2)NC1=O (single isomer, unassigned) [UBI-SAHN D306-Q313 (A)]	
B: −24 cal. mol^−1.K^−1	32 ± 0.3 C°	B: −7200 (cal. mol)^−1	> 800 µM	B: 58%			CC(=O)N[C@@H](CSC1CC(=O)N(CCNC(=O)CCC2=[N+]3C(=Cc4c(C)cc(C)n4[B-]3(F)F)C=C2)C1=O)C(=O)N[C@@H](CCC(=O)O)C(=O)N[C@@H](CC(C)C)C(=O)N[C@@H](C)C(=O)N[C@@H](CCC(N)=O)C(=O)N[C@@H](CC(C)C)C(=O)N[C@@H](CCC(N)=O)C(=O)N[C@@H](C)C(=O)N[C@@H](CCC(=O)O)C(=O)N[C@@H](CC(C)C)C(=O)N[C@@H](CC(=O)O)C(=O)N[C@]1(C)CCCCCCC=CCCC[C@@](C)(C(=O)N[C@@H](CC(=O)O)C(=O)N[C@@H](CCCCN)C(=O)N[C@@H](CCC(N)=O)C(=O)N[C@@H](CCC(=O)O)C(=O)N[C@@H](CC(C)C)C(=O)N[C@@H](CCCNC(=N)N)C(=O)N[C@@H](CCCCN)C(=O)N[C@@H](CC(C)C)C(N)=O)NC(=O)[C@H](CCC(N)=O)NC(=O)[C@H](C(C)C)NC(=O)[C@H](C(C)C)NC(=O)[C@H](C)NC(=O)[C@H](CCC(N)=O)NC(=O)[C@H](C(C)C)NC1=O (single isomer, unassigned) [Co-SAHN I307-A314 (B), ELAQLQAELDXVQAVVQXDKQELRKL, reference compound]	
B: −17 cal. mol^−1.K^−1	35 ± 0.3 C°	B: −5290 (cal. mol)^−1		B: 76%	Very weak		CC[C@H](C)[C@@H]1NC(=O)[C@](C)(NC(=O)[C@H](C)NC(=O)[C@H](CCC(N)=O)NC(=O)[C@H](C)NC(=O)[C@H](CCCCN)NC(=O)[C@H](CC(C)C)NC(=O)[C@H](CSC2CC(=O)N(CCNC(=O)CCC3=[N+]4C(=Cc5c(C)cc(C)n5[B-]4(F)F)C=C3)C2=O)NC(C)=O)CCCCCCC=CCCC[C@@](C)(C(=O)N[C@@H](C)C(=O)N[C@@H](CCC(=O)O)C(=O)N[C@@H](CCCNC(=N)N)C(=O)N[C@@H](Cc2c[nH]cn2)C(=O)N[C@@H](C)C(=O)N[C@@H](CCCNC(=N)N)C(=O)N[C@@H](CCC(=O)O)C(=O)N[C@@H](CCCCN)C(N)=O)NC(=O)[C@H](Cc2ccccc2)NC(=O)[C@H](CCCNC(=N)N)NC(=O)[C@H](C)NC(=O)[C@H](CCCCN)NC(=O)[C@H](Cc2ccc(O)cc2)NC1=O (single isomer, unassigned) [UBI-SAHN D306-Q313 (B)]	
